Results published in patent US9670161B2, “5-fluoro-N-(pyridin-2-yl)pyridin-2-amine derivatives containing a sulfone group” (BAYER PHARMA AKTIENGESELLSCHAFT, priority 2012, dated 2017).

Tests used:
[1] = target: CDK9/CycT1 (Homo sapiens (Human), UniProt P50750); assay: CDK9/CycT1 high ATP kinase assay (TR-FRET, 2 mM ATP); format: biochemical; settings: Method 1b
Experimental: 1b. CDK9/CycT1 High ATP Kinase Assay
CDK9/CycT1-inhibitory activity of compounds of the present invention at a high ATP concentration after preincubation of enzyme and test compounds was quantified employing the CDK9/CycT1 TR-FRET assay as described in the following paragraphs.
Recombinant full-length His-tagged human CDK9 and CycT1, expressed in insect cells and purified by Ni-NTA affinity chromatography, were purchase from Invitrogen (Cat. No PV4131). As substrate for the kinase reaction biotinylated peptide biotin-Ttds-YISPLKSPYKISEG (C-terminus in amid form) was used which can be purchased e.g. form the company JERINI peptide technologies (Berlin, Germany).
(§1) For the assay 50 nl of a 100 fold concentrated solution of the test compound in DMSO was pipetted into a black low volume 384 well microtiter plate (Greiner Bio-One, Frickenhausen, Germany), 2 μl of a solution of CDK9/CycT1 in aqueous assay buffer [50 mM Tris/HCl pH 8.0, 10 mM MgCl2, 1.0 mM dithiothreitol, 0.1 mM sodium ortho-vanadate, 0.01% (v/v) Nonidet-P40 (Sigma)] were added and the mixture was incubated for 15 min at 22° C. to allow pre-binding of the test compounds to the enzyme before the start of the kinase reaction. Then the kinase reaction was started by the addition of 3 μl of a solution of adenosine-tri-phosphate (ATP, 3.3 mM=>final conc. in the 5 μl assay volume is 2 mM) and substrate (1.67 μM=>final conc. in the 5 μl assay volume is 1 μM) in assay buffer and the resulting mixture was incubated for a reaction time of 25 min at 22° C. The concentration of CDK9/CycT1 was adjusted depending of the activity of the enzyme lot and was chosen appropriate to have the assay in the linear range, typical concentrations were in the range of 0.5 μg/mL. The reaction was stopped by the addition of 5 μl of a solution of TR-FRET detection reagents (0.2 μM streptavidine-XL665 [Cisbio Bioassays, Codolet, France] and 1 nM anti-RB(pSer807/pSer811)-antibody from BD Pharmingen [#558389] and 1.2 nM LANCE EU-W1024 labeled anti-mouse IgG antibody [Perkin-Elmer, product no. AD0077]) in an aqueous EDTA-solution (100 mM EDTA, 0.2% (w/v) bovine serum albumin in 100 mM HEPES/NaOH pH 7.0).
(§2) The resulting mixture was incubated 1 h at 22° C. to allow the formation of complex between the phosphorylated biotinylated peptide and the detection reagents. Subsequently the amount of phosphorylated substrate was evaluated by measurement of the resonance energy transfer from the Eu-chelate to the streptavidine-XL. Therefore, the fluorescence emissions at 620 nm and 665 nm after excitation at 350 nm was measured in a HTRF reader, e.g. a Rubystar (BMG Labtechnologies, Offenburg, Germany) or a Viewlux (Perkin-Elmer). The ratio of the emissions at 665 nm and at […] was taken as the measure for the amount of phosphorylated substrate. The data were normalised (enzyme reaction without inhibitor=0% inhibition, all other assay components but no enzyme=100% inhibition).

[2] = target: CDK2/CycE (Homo sapiens (Human), UniProt P24941); assay: CDK2/CycE kinase assay (TR-FRET, 10 μM ATP); format: biochemical; settings: Method 2a
From the text: 2a. CDK2/CycE Kinase Assay:
CDK2/CycE-inhibitory activity of compounds of the present invention was quantified employing the CDK2/CycE TR-FRET assay as described in the following paragraphs:
Recombinant fusion proteins of GST and human CDK2 and of GST and human CycE, expressed in insect cells (Sf9) and purified by Glutathion-Sepharose affinity chromatography, were purchased from ProQinase GmbH (Freiburg, Germany). As substrate for the kinase reaction biotinylated peptide biotin-Ttds-YISPLKSPYKISEG (C-terminus in amid form) was used which can be purchased e.g. form the company JERINI Peptide Technologies (Berlin, Germany).
as §1, with “of CDK2/CycE” for “of CDK9/CycT1”, “(ATP, 16.7” for “(ATP, 3.3 mM=>final conc. in the 5 μl assay volume is 2 mM) and substrate (1.67”, “is 10 μM) and substrate (1.25 μM=>final conc. in the 5 μl assay volume is 0.75” for “is 1”, “of 130 ng/mL.” for “of 0.5 μg/mL.”
as §2, with “TR-FRET” for “HTRF”

Sequence of CDK9/CycT1 (P50750 whole entry): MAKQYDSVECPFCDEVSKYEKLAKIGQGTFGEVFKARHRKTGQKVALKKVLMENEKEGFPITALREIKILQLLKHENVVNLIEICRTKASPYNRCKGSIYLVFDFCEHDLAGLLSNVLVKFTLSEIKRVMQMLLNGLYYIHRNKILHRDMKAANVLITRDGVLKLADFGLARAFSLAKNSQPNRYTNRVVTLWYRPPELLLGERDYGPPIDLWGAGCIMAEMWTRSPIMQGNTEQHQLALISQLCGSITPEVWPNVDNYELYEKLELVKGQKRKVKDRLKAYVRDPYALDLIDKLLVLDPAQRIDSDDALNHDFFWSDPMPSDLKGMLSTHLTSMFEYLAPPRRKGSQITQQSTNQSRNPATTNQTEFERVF
Sequence of CDK9/CycT1 (O60563 whole entry partner): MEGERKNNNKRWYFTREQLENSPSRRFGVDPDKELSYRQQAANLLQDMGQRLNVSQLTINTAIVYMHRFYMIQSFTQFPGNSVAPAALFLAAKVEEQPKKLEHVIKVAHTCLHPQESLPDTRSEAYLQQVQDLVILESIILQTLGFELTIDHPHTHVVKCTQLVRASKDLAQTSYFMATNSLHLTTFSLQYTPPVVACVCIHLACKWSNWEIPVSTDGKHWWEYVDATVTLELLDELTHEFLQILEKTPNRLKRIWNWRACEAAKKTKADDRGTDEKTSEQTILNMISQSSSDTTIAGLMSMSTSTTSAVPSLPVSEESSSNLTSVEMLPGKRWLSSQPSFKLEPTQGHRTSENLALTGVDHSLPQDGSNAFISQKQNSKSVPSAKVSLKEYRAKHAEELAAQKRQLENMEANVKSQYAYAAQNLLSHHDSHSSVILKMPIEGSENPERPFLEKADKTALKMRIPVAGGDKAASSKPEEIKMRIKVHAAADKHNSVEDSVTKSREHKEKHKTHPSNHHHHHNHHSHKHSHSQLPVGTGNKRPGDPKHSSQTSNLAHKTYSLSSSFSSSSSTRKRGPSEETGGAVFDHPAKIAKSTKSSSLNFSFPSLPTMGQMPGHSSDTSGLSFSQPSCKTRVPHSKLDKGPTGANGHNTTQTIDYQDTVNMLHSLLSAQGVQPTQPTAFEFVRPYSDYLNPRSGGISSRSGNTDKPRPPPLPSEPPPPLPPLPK

| Compound | IC50 [1] | IC50 [2] |
| --- | --- | --- |
| COc1cc(F)ccc1-c1cc(Nc2cc(CS(C)(=O)=O)cc(C(F)(F)F)n2)ncc1F [Example 4, 5-Fluoro-4-(4-fluoro-2-methoxyphenyl)-N-{4-[(methylsulfonyl)methyl]-6-(trifluoromethyl)pyridin-2-yl}pyridin-2-amine] | 3 nM | 52 nM |
| COc1cc(F)ccc1-c1cc(Nc2cc(CS(C)(=O)=O)ccn2)ncc1F [Example 1, 5-Fluoro-4-(4-fluoro-2-methoxyphenyl)-N-{4-[(methylsulfonyl)methyl]pyridin-2-yl}pyridin-2-amine] | 2 nM | 170 nM |

Other lines, results leading:

| IC50 [1] | IC50 [2] | Compound |
| --- | --- | --- |
| 2 nM | 65 nM | COc1cc(F)ccc1-c1cc(Nc2cc(CS(C)(=O)=O)cc(F)n2)ncc1F [Example 3, 5-Fluoro-4-(4-fluoro-2-methoxyphenyl)-N-{6-fluoro-4-[(methylsulfonyl)methyl]pyridin-2-yl}pyridin-2-amine] |
| 1 nM | 7 nM | COc1cc(F)ccc1-c1cc(Nc2cc(CS(C)(=O)=O)cc(C(F)F)n2)ncc1F [Example 5, N-{6-(Difluoromethyl)-4-[(methylsulfonyl)methyl]pyridin-2-yl}-5-fluoro-4-(4-fluoro-2-methoxyphenyl)pyridin-2-amine] |
| 2 nM | 70 nM | COc1cc(F)ccc1-c1cc(Nc2cc(CS(C)(=O)=O)cc(C)n2)ncc1F [Example 2, 5-Fluoro-4-(4-fluoro-2-methoxyphenyl)-N-{6-methyl-4-[(methylsulfonyl)methyl]pyridin-2-yl}pyridin-2-amine] |
